Assays:
[1] = biological target: T1, KRas G12D (Homo sapiens (Human), UniProt P01116, G12D); test: KRas G12D Binding Assay (TR-FRET displacement); settings: TR-FRET displacement of Cy5 labelled tracer, GDP-loaded KRAS G12D, 60 minute incubation at 22° C.
Procedure: After a 60 minute incubation at 22° C., the reaction was measured using a PerkinElmer EnVision multimode plate reader via TR-FRET dual wavelength detection, and the percent of control (POC) calculated using a ratiometric emission factor. […] The POC values were fit to a 4-parameter logistic curve and the IC50 value was determined as the concentration where the curve crosses 50 POC.
Target sequence in this assay (P01116 other isoform, or with tags, fused parts or gaps G12D): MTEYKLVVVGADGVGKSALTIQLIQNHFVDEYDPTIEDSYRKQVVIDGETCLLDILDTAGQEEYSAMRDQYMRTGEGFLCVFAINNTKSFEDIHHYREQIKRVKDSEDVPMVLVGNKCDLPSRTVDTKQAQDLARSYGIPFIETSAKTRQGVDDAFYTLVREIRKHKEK

[2] = biological target: T1, KRas G12D; test: KRas G12D Surface Plasmon Resonance (SPR) Binding Assay; settings: Biacore T200, immobilized biotinylated KRAS protein, 1:1 binding model
Procedure: Briefly, 1 L of 1.05× HBS-Mg buffer (262.5 mM Bioultra Hepes, pH 7.5, 157.5 mM NaCl, 105 mM MgCl2, 0.525 mM TCEP, 0.0305% Brij-35) was prepared and filter sterilized using a 0.22 μm bottle top filter. Approximately 50 mL of 1.05× HBS-Mg buffer was removed and saved for future dilutions. A 50 mL aliquot of DMSO (Sigma Aldrich DMSO Lot. #SHBK2079) was added and continued to stir for 10 minutes, creating the final 1.0× HBS-Mg buffer (250 mM Bioultra Hepes pH 7.5, 150 mM NaCl, 100 mM MgCl2, 0.5mM TCEP, 0.03% Brij-35).
Biacore T200 instrument was primed using 1.0× HBS-Mg buffer before docking a GE Streptavidin (SA) chip and then primed two additional times prior to beginning the immobilization step. All immobilized protein mixtures were created using 3-5mg/mL Biotinylated Avidin-tagged KRAS protein using the following immobilization settings: SA chip type, 1 flow cells per cycle, 720 second contact time, and 5 ul/min flow rate. Normalization of the detector was also performed during the immobilization step using the GE Biallormalize solution.
All compounds were diluted to 10 mM in 100% DMSO prior to being diluted 20× in 1.05× buffer. […] Data evaluation was performed using the Biacore T200 Evaluation software and data fit to 1:1 binding model.
Target sequence in this assay (P01116-2 other isoform, or with tags, fused parts or gaps G12D): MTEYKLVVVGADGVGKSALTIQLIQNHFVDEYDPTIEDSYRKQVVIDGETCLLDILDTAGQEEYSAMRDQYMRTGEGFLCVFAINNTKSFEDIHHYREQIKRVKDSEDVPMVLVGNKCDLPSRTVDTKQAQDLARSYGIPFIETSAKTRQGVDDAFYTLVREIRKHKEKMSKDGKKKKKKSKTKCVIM

[3] = test system: KRas G12D-mediated phosphorylation of ERK; test: Inhibition of KRas G12D-mediated phosphorylation of ERK in AGS cells; type: cell-based; settings: Homo sapiens; AGS cells expressing G12D, 3 hours, phospho-ERK normalized to GAPDH
How it was run: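 In-cell Western: p-ERK Thr202/Tyr204 signal over GAPDH, as % of DMSO control, with IC50 from a 4-parameter curve. AGS cells seeded 40,000/well for 12-14 h, exposed to compound 3 h at 0.5% DMSO final, then formaldehyde-fixed and methanol-permeabilized.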

Structure (SMILES)	IC50 [1] [µM]	Kd [2] [µM]	IC50 [3] [µM]
Oc1cc(-c2ncc3c(N4C[C@H]5CC[C@@H](C4)N5)nc(OCCc4ncccn4)nc3c2F)c2ccccc2c1 [Example 7, 4-(4-((1R,5S)-3,8-diazabicyclo[3.2.1]octan-3-yl)-8-fluoro-2-(2-(pyrimidin-2-yl)ethoxy)pyrido[4,3-d]pyrimidin-7-yl)naphthalen-2-ol]	1.87	0.464	
OCC(COc1nc(N2C[C@H]3CC[C@@H](C2)N3)c2cnc(-c3cccc4cccc(Cl)c34)c(F)c2n1)c1cccnc1 (stereo partly drawn) [Example 59, 3-((4-((1R,5S)-3,8-diazabicyclo[3.2.1]octan-3-yl)-7-(8-chloronaphthalen-1-yl)-8-fluoropyrido[4,3-d]pyrimidin-2-yl)oxy)-2-(pyridin-3-yl)propan-1-ol]	0.946	1.12	
CN1CCC[C@H]1COc1nc(N2C[C@H]3CC[C@@H](C2)N3)c2cnc(-c3cccc4cccc(CCC#N)c34)c(F)c2n1 [Example 117, 3-(8-(4-((1R,5S)-3,8-diazabicyclo[3.2.1]octan-3-yl)-8-fluoro-2-(((S)-1-methylpyrrolidin-2-yl)methoxy)pyrido[4,3-d]pyrimidin-7-yl)naphthalen-1-yl)propanenitrile bis(2,2,2-trifluoroacetate)]	0.731	1	
Oc1cc(-c2ncc3c(N4C[C@H]5CC[C@@H](C4)N5)nc(OCCCN4C[C@@H]5C[C@H]4CO5)nc3c2F)c2ccccc2c1 [Example 24, 4-(2-(3-((1S,4S)-2-oxa-5-azabicyclo[2.2.1]heptan-5-yl)propoxy)-4-((1R,5S)-3,8-diazabicyclo[3.2.1]octan-3-yl)-8-fluoropyrido[4,3-d]pyrimidin-7-yl)naphthalen-2-ol]	0.0079	0.005	2.89
Cn1c(CCOc2nc(N3C[C@H]4CC[C@@H](C3)N4)c3cnc(-c4cc(O)cc5ccccc45)c(F)c3n2)nc2ccccc21 [Example 30, 4-(4-((1R,5S)-3,8-diazabicyclo[3.2.1]octan-3-yl)-8-fluoro-2-(2-(1-methyl-1H-benzo[d]imidazol-2-yl)ethoxy)pyrido[4,3-d]pyrimidin-7-yl)naphthalen-2-ol]	0.418	0.18	9.6
O[C@@H]1C[C@@H]2CN(c3nc(OCC45CCCN4CCC5)nc4c(F)c(-c5cccc6cccc(Cl)c56)ncc34)C[C@H]1N2 [Example 49, (1R,5R,6R)-3-(7-(8-chloronaphthalen-1-yl)-8-fluoro-2-((tetrahydro-1H-pyrrolizin-7a(5H)-yl)methoxy)pyrido[4,3-d]pyrimidin-4-yl)-3,8-diazabicyclo[3.2.1]octan-6-ol]	0.0059	0.0004	2.12
COC(=O)C12CCC(CN(c3nc(OC[C@@H]4CCCN4C)nc4c(F)c(-c5cc(O)cc6ccccc56)ncc34)C1)N2 (stereo partly drawn) [Example 158, methyl 3-(8-fluoro-7-(3-hydroxynaphthalen-1-yl)-2-(((S)-1-methylpyrrolidin-2-yl)methoxy)pyrido[4,3-d]pyrimidin-4-yl)-3,8-diazabicyclo[3.2.1]octane-1-carboxylate bis(2,2,2-trifluoroacetate)]	0.0737	0.33	4.22
[O-][N+]12CCCC1(COc1nc(N3CC4CCC(C3)N4)c3cnc(-c4cccc5cccc(Cl)c45)c(F)c3n1)CCC2 [Example 60, 7a-(((4-((1R,5S)-3,8-diazabicyclo[3.2.1]octan-3-yl)-7-(8-chloronaphthalen-1-yl)-8-fluoropyrido[4,3-d]pyrimidin-2-yl)oxy)methyl)hexahydropyrrolizine 4(1H)-oxide]	1.66	> 1000	> 16.7
OCC(O)CCOc1nc(N2C[C@H]3CC[C@@H](C2)N3)c2cnc(-c3cccc4cccc(Cl)c34)c(F)c2n1 (stereo partly drawn) [Example 57, 4-((4-((1R,5S)-3,8-diazabicyclo[3.2.1]octan-3-yl)-7-(8-chloronaphthalen-1-yl)-8-fluoropyrido[4,3-d]pyrimidin-2-yl)oxy)butane-1,2-diol]	7.29	> 1000	
Fc1c(-c2cncc3cccc(Cl)c23)ncc2c(N3C[C@H]4CC[C@@H](C3)N4)nc(OCC34CCCN3CCC4)nc12 [Example 33, 4-((1R,5S)-3,8-diazabicyclo[3.2.1]octan-3-yl)-7-(5-chloroisoquinolin-4-yl)-8-fluoro-2-((tetrahydro-1H-pyrrolizin-7a(5H)-yl)methoxy)pyrido[4,3-d]pyrimidine bis(2,2,2-trifluoroacetate)]	0.0211	0.0717	2.05
Oc1cc(-c2ncc3c(N4C[C@H]5CC[C@@H](C4)N5)nc(OCCc4ccccc4F)nc3c2F)c2ccccc2c1 [Example 67, 4-(4-((1R,5S)-3,8-diazabicyclo[3.2.1]octan-3-yl)-8-fluoro-2-(2-fluorophenethoxy)pyrido[4,3-d]pyrimidin-7-yl)naphthalen-2-ol]	1.25	1.15	
CC(C)N1CCC[C@H]1COc1nc(N2C[C@H]3C[C@@H](O)[C@@H](C2)N3)c2cnc(-c3cccc4cccc(Cl)c34)c(F)c2n1 [Example 153, (1R,5R,6R)-3-(7-(8-chloronaphthalen-1-yl)-8-fluoro-2-(((S)-1-isopropylpyrrolidin-2-yl)methoxy)pyrido[4,3-d]pyrimidin-4-yl)-3,8-diazabicyclo[3.2.1]octan-6-ol]	0.0508	0.0705	2.37
OC[C@@H](O)COc1nc(N2C[C@H]3CC[C@@H](C2)N3)c2cnc(-c3cccc4cccc(Cl)c34)c(F)c2n1 [Example 56, (R)-3-((4-((1R,5S)-3,8-diazabicyclo[3.2.1]octan-3-yl)-7-(8-chloronaphthalen-1-yl)-8-fluoropyrido[4,3-d]pyrimidin-2-yl)oxy)propane-1,2-diol]	5.92	5.17	
